The record followed here is US8101198B2, “Osteogenic enhancer composition” (The Regents of the University of California, priority 2007, dated 2012).

SMILES strings stand for the structures.

Assay [1] concerns rat osteoblastic cells. Nature of the assay: Alkaline phosphatase (ALP) stain of osteoblastic culture (Example 1). The settings on record: NAC added into osteoblastic culture, day 7; dose-dependent up to 5 mM; p<0.001 vs without NAC. It counts as cell-based. On the procedure: Bone marrow cells isolated from the femur of 8-week-old male Sprague-Dawley rats were placed into alpha-modified Eagle's medium supplemented with 15% fetal bovine serum, 50 µg/ml ascorbic acid, 10^−8M dexamethasone, 10 mM Na-β-glycerophosphate and Antibiotic-antimycotic solution containing 10,000 units/ml Penicillin G sodium, 10,000 mg/ml Streptomycin sulfate and 25 mg/ml Amphotericin B. Cells were incubated in a humidified atmosphere of 95% air, 5% CO2 at 37° C. At 80% confluency, the cells were detached using 0.25% Trypsin-1 mM EDTA-4Na and seeded either the polystyrene dish with or without NAC addition, bone substitute material (demineralized bone matrix, Orthoblast, IsoTis OrthoBiologics, Inc. Irvine, Calif.), collagen gel (PureCol, Inamed, Fremont, Calif.) or bone cement (Endurance MV, DePuy Orthopaedics, Warsaw, Ind.) with or without NAC incorporation at a density of 4×10^4 cells/cm^2. The culture medium was renewed every three days. The NAC incorporated bone graft substitute and collagen membrane materials were prepared by soaking each of the materials in NAC for 24 hours. The NAC-incorporated collagen gel was prepared by mixing the collagen gel and NAC. […] The stained images were analyzed for ALP positive area defined as [(stained area/total dish area)×100)] […] Three independent cultures were evaluated in each the experimental groups.

For assay [2], the system named is rat osteoblastic cells. Nature of the assay: Mineralization assays, Von Kossa and Alizarin Red stain (Example 1). It counts as cell-based. The note with it: NAC added into culture medium, day 14; dose-dependent; p<0.001. On the procedure: Bone marrow cells isolated from the femur of 8-week-old male Sprague-Dawley rats were placed into alpha-modified Eagle's medium supplemented with 15% fetal bovine serum, 50 µg/ml ascorbic acid, 10^−8M dexamethasone, 10 mM Na-β-glycerophosphate and Antibiotic-antimycotic solution containing 10,000 units/ml Penicillin G sodium, 10,000 mg/ml Streptomycin sulfate and 25 mg/ml Amphotericin B. Cells were incubated in a humidified atmosphere of 95% air, 5% CO2 at 37° C. At 80% confluency, the cells were detached using 0.25% Trypsin-1 mM EDTA-4Na and seeded either the polystyrene dish with or without NAC addition, bone substitute material (demineralized bone matrix, Orthoblast, IsoTis OrthoBiologics, Inc. Irvine, Calif.), collagen gel (PureCol, Inamed, Fremont, Calif.) or bone cement (Endurance MV, DePuy Orthopaedics, Warsaw, Ind.) with or without NAC incorporation at a density of 4×10^4 cells/cm^2. The culture medium was renewed every three days. The NAC incorporated bone graft substitute and collagen membrane materials were prepared by soaking each of the materials in NAC for 24 hours. The NAC-incorporated collagen gel was prepared by mixing the collagen gel and NAC. […] (%) was measured using a digitized image analysis system (Image Pro-plus, Media Cybernetics, MD). Three independent cultures were evaluated in each of the experimental groups.

Assay [3] concerns osteoblastic culture. Nature of the assay: Gene expression analysis of bone-related genes by RT-PCR (Example 1). It counts as cell-based, rat. The settings on record: relative to GAPDH. On the procedure: Bone marrow cells isolated from the femur of 8-week-old male Sprague-Dawley rats were placed into alpha-modified Eagle's medium supplemented with 15% fetal bovine serum, 50 µg/ml ascorbic acid, 10^−8M dexamethasone, 10 mM Na-β-glycerophosphate and Antibiotic-antimycotic solution containing 10,000 units/ml Penicillin G sodium, 10,000 mg/ml Streptomycin sulfate and 25 mg/ml Amphotericin B. Cells were incubated in a humidified atmosphere of 95% air, 5% CO2 at 37° C. At 80% confluency, the cells were detached using 0.25% Trypsin-1 mM EDTA-4Na and seeded either the polystyrene dish with or without NAC addition, bone substitute material (demineralized bone matrix, Orthoblast, IsoTis OrthoBiologics, Inc. Irvine, Calif.), collagen gel (PureCol, Inamed, Fremont, Calif.) or bone cement (Endurance MV, DePuy Orthopaedics, Warsaw, Ind.) with or without NAC incorporation at a density of 4×10^4 cells/cm^2. The culture medium was renewed every three days. The NAC incorporated bone graft substitute and collagen membrane materials were prepared by soaking each of the materials in NAC for 24 hours. The NAC-incorporated collagen gel was prepared by mixing the collagen gel and NAC. The expression of bone-related genes was analyzed using the reverse transcription-polymerase chain reaction (RT-PCR). Total RNA in the cultures was extracted using TRIzol (Invitrogen, Carlsbad, Calif.) and purification column (RNeasy, Qiagen, Valencia, Calif.). Following DNAse I treatment, reverse transcription of 0.5 μg of total RNA was performed using MMLV reverse transcriptase (Clontech, Carlsbad, Calif.) in the presence of oligo(dT) primer (Clontech, Carlsbad, Calif.). The PCR reaction was performed using Taq DNA polymerase (EX Taq, Takara Bio, Madison, Wis.) to detect alpha-I type I collagen (collagen I), osteopontin, and osteocalcin mRNA. The primer sequences and PCR conditions are described previously. Resulting products were visualized on 1.5% agarose gel with ethidium bromide staining. The intensity of bands was quantified under UV light, and the values were normalized with reference to GAPDH mRNA.

Consider `CC(=O)N[C@@H](CS)C(=O)O` [NAC, N-acetyl cysteine], for which the “alkaline phosphatase activity (ALP positive area)” value in assay [1] is reported as “increased”. The “Von Kossa positive area (mineralizing capability)” value in assay [2] is recorded as “significantly increased”. Further, in assay [3] (NAC addition to the culture), the “gene expression level of Bmp2” value is listed as “significantly elevated” and the “gene expression level of Runx2/cbfa1” value is given as “significantly elevated”. Further, in assay [3] (culture with NAC, early stage of day 3), the osteocalcin expression result is listed as “upregulated”. Moreover, in assay [3] (culture with NAC, up to day 14), the “expression of collagen I” value is listed as “upregulated” and the expression of osteopontin entry was “upregulated”.
